Reference: PubChem BioAssay AID1053159 (Broad Institute, 2014)

Test system: HepG2 PCSK9 mRNA qRT-PCR, time course 0.5-28 h
Assay: time-dependent decrease of PCSK9 transcript – cell-based, HepG2, RT-PCR, time course, mechanism study for Trib1 inducer project, late-stage follow-up (AID 1053159)
Settings: dose 2.5; hits give low values

In the case of CN1C(=O)c2cc(NC(=O)c3ccc(C(F)(F)F)cc3)ccc2OC[C@@H]2O[C@H](CC(=O)NC3Cc4ccccc4C3)CC[C@@H]21, the relative PCSK9 expression was 19%.
